Reference: US20060035317A1, “Effect of treatment with 4,5-dihydroxy-2-cyclopenten-1-one (dhcp) on gene expression and quorum-sensing in bacteria” (priority 2002, published 2006)

Legend:
[1] = system: AI-2 activity, V. harveyi reporter strain BB170; assay: AI-2 assay (luminescence of reporter strain); assay type: cell-based
Procedure: FIGS. 2A and 2B are graphs showing DHCP inhibits AI-2 activity. The AI-2 activity assay was carried out as described in Materials and Methods section of Example 1. The luminescence seen with V. harveyi BB152 was assumed as 100% and the other activities were expressed as relative %. In FIG. 2A, the lanes are as follows: Sterile AB medium, lane 1; V. harveyi BB152 culture fluid, lane 2; DHCP (250 μM), lane 3; DHCP (250 μM) plus V. harveyi BB152 culture fluid, lane 4. In FIG. 2B, DHCP was added to the reaction mixtures after maximum luminescence was generated by AI-2, at a concentration of 250 μM (closed circles) and 100 μM (open squares). The corresponding control activity of AI-2 without DHCP addition is also shown (open triangles). The light production was monitored at various time points with a liquid scintillation counter.
The AI-2 assays using V. harveyi reporter strain (BB170) were carried out as described by Surette and Bassler (Surette et al., 1999). Cell-free culture fluid from V. harveyi BB152 strain was used as a positive control. Sterile AB medium was used a negative control. Briefly, the V. harveyi BB170 strain was grown overnight with aeration at 30° C. in the AB medium and the cells were then diluted 1:5000 in the fresh medium. The diluted culture (90 μl) was added in the assay mixture containing 10 μl of AB medium or cell-free culture fluid of V. harveyi BB152/DHCP (100-250 μM). To check the effect of DHCP on the light production by AI-2, it was added to the reaction mixture after the maximum luminescence was achieved. The light production was monitored with a liquid scintillation counter.
In the present study, the AI-2 assay designed by Suretter and Bassler (Surette et al., 1999) was used. The V. harveyi BB170 reporter strain has the quorum-sensing phenotype, sensor 1^−, sensor 2^+. It induces lux expression through the signaling system 2 detector. Addition of 10% cell-free culture fluid prepared from V. harveyi BB152 strain (containing the system 2 autoinducer) stimulates luminescence expression in the reporter strain. […] The laboratory of the present inventors examined if DHCP inhibits the activity of AI-2. […] Sterile AB medium was used as a negative control (lane 1). […] It has been reported that the AI-2 gave maximum luminescence at approximately 10 μM concentration (Schauder et al., 2001). It should be noted that the DHCP concentration used in the present assay was in excess of the AI-2 concentration. It was also tested if DHCP can inhibit AI-2 activity when it is added after maximum luminescence is generated by AI-2. […] When it was added at the concentration of 100 μM (open squares), the AI-2 activity was reduced to zero after 40 min. The corresponding control activity without DHCP addition (open triangles) was completely stable.

[2] = system: E. coli wild-type strain JM83 (gene expression); assay: Primer extension analysis of mRNA levels in DHCP-treated vs control cells; assay type: cell-based; conditions: DHCP 250 μM, 8 h
Procedure: FIG. 1 are gels showing the effect of DHCP on the levels of mRNAs. Total RNA was extracted by the hot phenol method as described in the Materials and Methods section of Example 1, and primer extension analysis was carried out with oligonucleotides corresponding to osmY, dps, rpoS, katG, cysK, tehA, zipA, and ompF. Lanes 1 and 2 in each case represent mRNAs isolated from control (untreated) and DHCP treated cells, respectively.
E. coli wild-type strain JM83 [F^− araΔ(lac-proAB) rpsL(str^r)] (Yanisch-Perron et al., 1985) was grown in Luria broth (LB). V. harveyi strains BB152 and BB170 were a gift from Dr. Bonnie Bassler (Princeton University). These strains were grown in AB medium as described previously (Surette et al., 1999).
E. coli cells grown overnight in LB medium were diluted into fresh LB medium. After the growth reached a Klett unit of 50, DHCP was added (250 μM) and growth was further monitored. After growth reached a Klett unit of 90-100, it was diluted 10-fold into a medium containing the same concentration of DHCP as described previously (Phadtare et al., 2001). The cells were harvested after a total of 8 h of incubation with DHCP. […] The total RNA was extracted by the hot phenol method described previously (Sarmientos et al., 1983). It was further purified by RNeasy Minikit (Qiagen) and was then treated with DNase I followed by phenol-chloroform treatment and ethanol precipitation. It was quantified by measuring absorbance at 260 nm. The purity of RNA was confirmed by agarose gel electrophoresis.
The primers used for detection of the respective mRNAs were: Primer 750077, 5′-[…]-3′ (SEQ ID NO:1), that corresponds to the sequence from the 15th to the 8th codon of osmY (Yim et al., 1992); primer 750078, 5′-[…]-3′ (SEQ ID NO:2), that corresponds to the sequence from the 16th to the 9th codon of dps (Altuvia et al., 1994); Primer 979747, 5′-[…]-3′ (SEQ ID NO:3), that corresponds to the region from the 6th codon of rpoS (Takayanagi et al., 1994); primer 956660, 5′-AGT […]-3′ (SEQ ID NO:4), that corresponds to the region from 13th to the 6th codon of katG (Triggs-Raine et al., 1998); primer 3969805, 5′-[…]-3′ (SEQ ID NO:5), that corresponds to the region from 20th to the 13th codon of cysK (Byrne et al., 1988); primer 3969806, 5′-[…]-3′ (SEQ ID NO:6), that corresponds to the region from 13th to the 6th codoh of tehA (Walter et al., 1991); primer 3969807, 5′[…]-3′ (SEQ ID NO:7), that corresponds to the region from 10th to the 3rd codon of zipA (Hale et al., 1997); and primer 7018 5′-[…]-3′ (SEQ ID NO:8), that includes the region encompassing from the first codon of ompF (accession numbers, J01655, M10311 and M10312). The primers were labeled with [γ-^32P] ATP (Du-Pont-New England Nuclear] by using T4 polynucleotide kinase (Gibco BRL). Primer extension was carried out with 5 μg of RNA at 42° C. for 1 h in a final reaction volume of 10 μl, with 50 mM Tris-HCl (pH 8.5), 8 mM MgCl2, 30 mM KCl, 1 mM dithiothreitol, 0.4 pmol of ^32P-labeled primer, 0.5 mM each of the dNTPs, 10 U RNase inhibitor (Boehringer Mannheim) and 6.25 U of reverse transcriptase (Boehringer Mannheim). The products were analyzed on a 6% polyacrylamide gel under denaturing conditions. Quantitation of primer extension products was carried out by direct radioactive measurements.

Question: For `O=C1C=CC(O)C1O` (stereo not drawn) [DHCP, 4,5-dihydroxy-2-cyclopenten-1-one], which “Time until AI-2 activity was reduced to zero” value ([1]; DHCP 100 μM added after maximum luminescence generated by AI-2, FIG. 2B) is on record?
Answer: The value was 40 min.

Question: What about the “Time until AI-2 activity was reduced to zero” value ([1]; DHCP 250 μM added after maximum luminescence generated by AI-2, FIG. 2B) of the same compound?
Answer: Its value is no more than 8 min.

Question: And the “Inhibition of AI-2 activity” value ([1]; DHCP 250 μM added immediately before AI-2 containing cell-free extract of V. harveyi BB152, FIG. 2A lane 4)?
Answer: Its value is “completely inhibited”.

Question: What about the “AI-2 activity (luminescence) of DHCP itself” value ([1]; DHCP 250 μM alone, FIG. 2A lane 3) of the same compound?
Answer: Its value is “did not show AI-2 activity”.

Question: And the “Primer extension: ratio of mRNA level DHCP-treated to control” value (“Primer extension: ratio” for short) ([2]; gene cysK)?
Answer: Its value is 18.00.

Question: And the “Primer extension: ratio” value ([2]; gene dps)?
Answer: The value was 12.00.

Question: What about the “Primer extension: ratio” value ([2]; gene katG) of the same compound?
Answer: The value was 9.00.

Question: What about the “Primer extension: ratio” value ([2]; gene ompF) of the same compound?
Answer: The value was 0.06.

Question: And the “Primer extension: ratio” value ([2]; gene osmY)?
Answer: Its value is 15.00.

Question: And the “Primer extension: ratio” value ([2]; gene rpoS)?
Answer: The value was 4.00.

Question: What about the “Primer extension: ratio” value ([2]; gene tehA) of the same compound?
Answer: The value was 5.00.

Question: And the “Primer extension: ratio” value ([2]; gene zipA)?
Answer: The value was 5.00.
